Among the test systems are RPMI-8226; HCT-116; EKVX; ACHN; NCI-H23; Malme-3M; HCT-15; A498; SF-295; SN12C; MCF7; U-251; OVCAR-5; NCI-H460; UACC-62; SF-539; NCI-H522; OVCAR-3; CAKI-1; SK-MEL-2.
Holding throughout (assay): inhibition of tumour cell growth, NCI panel, 48 h

SMILES strings stand for the structures.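 The compound was tested at five concentrations on cells cultured in 96-well plates, with a 48-hour exposure period. Here, GI50 denotes the concentration required for 50% inhibition of growth.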 Active and inactive are the calls of the source. Rule as the data show it: active = GI50 up to about 1.1 µM and inactive = higher.

Take `COc1ccc2cc(CNCCCCCCCCCCCCNCc3ccc4cc(OC)ccc4c3)ccc2c1`: the GI50 with RPMI-8226 is 12.8 µM (inactive); in the experiment on HCT-116 it was 16.7 µM (inactive); in the experiment on EKVX it was 20.3 µM (inactive); with ACHN, 19.6 µM (inactive); in the experiment with NCI-H23 it was 20 µM (inactive); with Malme-3M, 16.6 µM (inactive). Further, the GI50 with HCT-15 was 17.6 µM; in the experiment with A498, 18 µM (inactive); with SF-295 it was 19.5 µM (inactive); with SN12C it was 19.7 µM (inactive); with MCF7 it was 17.1 µM (inactive); with U-251, 20.8 µM (inactive). Besides, the GI50 in the experiment with OVCAR-5 is 28.4 µM (inactive); in the experiment with NCI-H460 it was 17.3 µM (inactive); in the experiment on UACC-62, 21.2 µM (inactive); in the experiment on SF-539 it was 17.4 µM (inactive); in the experiment with NCI-H522 it was 18.9 µM (inactive); in the experiment with OVCAR-3, 21.2 µM (inactive). Besides, the GI50 in the experiment on CAKI-1 was 20.9 µM (inactive); in the experiment on SK-MEL-2, 22.5 µM (inactive).
As to `COC(=O)C1=COC2OC3CC1C2C(C)O3` (configuration not stated), the GI50 with RPMI-8226, with HCT-116, in the experiment with EKVX, in the experiment on ACHN, in the experiment on NCI-H23 and in the experiment with Malme-3M was > 100 µM (inactive) in each case. The GI50 with HCT-15 was above 100 µM; with A498, > 100 µM (inactive); in the experiment with SF-295, > 100 µM (inactive); in the experiment on SN12C, > 100 µM (inactive); with MCF7, > 100 µM (inactive); with U-251, > 100 µM (inactive). In addition, the GI50 in the experiment on OVCAR-5, in the experiment with NCI-H460, in the experiment on UACC-62, in the experiment on SF-539, in the experiment with NCI-H522 and in the experiment on OVCAR-3 was > 100 µM (inactive) throughout. Besides, the GI50 in the experiment on CAKI-1 and in the experiment on SK-MEL-2 was > 100 µM (inactive) throughout.
With `Cn1c2ncccc2n2c(=O)cc(O)cc12`, the GI50 in the experiment on RPMI-8226 is > 100 µM (inactive); in the experiment with HCT-116, > 100 µM (inactive); in the experiment on EKVX, 86.1 µM (inactive); in the experiment with ACHN, > 100 µM (inactive); with NCI-H23, > 100 µM (inactive); with Malme-3M it was 33.6 µM (inactive). The GI50 in the experiment with HCT-15 is 48 µM; with A498 it was 64.7 µM (inactive); in the experiment with SF-295, 97.9 µM (inactive); in the experiment on MCF7, 33.9 µM (inactive); with U-251 it was > 100 µM (inactive); with OVCAR-5, 88.3 µM (inactive). Further, the GI50 in the experiment on NCI-H460 was 60.5 µM (inactive); in the experiment on UACC-62, 77.3 µM (inactive); in the experiment with SF-539 it was > 100 µM (inactive); in the experiment with NCI-H522, 44 µM (inactive); with OVCAR-3 it was 40.8 µM (inactive); in the experiment with CAKI-1, 32.4 µM (inactive). For the same compound, in the experiment with SK-MEL-2, the GI50 is 39.6 µM (inactive).
In the case of `O=S(=O)(N/C(=N\O)Nc1ccc(Cl)cc1)c1ccccc1`, the GI50 in the experiment with RPMI-8226 was 4.13 µM (inactive); in the experiment with HCT-116 it was 10.7 µM (inactive); in the experiment on EKVX, 10.3 µM (inactive); with ACHN, 12.2 µM (inactive); in the experiment on NCI-H23, 16.2 µM (inactive); in the experiment with Malme-3M, 4.34 µM (inactive). In addition, the GI50 is 7.66 µM with HCT-15; 6.67 µM (inactive) in the experiment with A498; 36.6 µM (inactive) in the experiment with SF-295; 11.7 µM (inactive) in the experiment on SN12C; 12.6 µM (inactive) in the experiment on MCF7; 19.5 µM (inactive) in the experiment with U-251. The GI50 with OVCAR-5 is 14.5 µM (inactive); in the experiment with NCI-H460, 13.4 µM (inactive); in the experiment with UACC-62, 14.6 µM (inactive); in the experiment on SF-539, 4.22 µM (inactive); in the experiment with NCI-H522 it was 1.03 µM (active); with OVCAR-3 it was 1.23 µM (inactive). For the same compound, the GI50 was 2.07 µM (inactive) in the experiment on CAKI-1 and 11.6 µM (inactive) in the experiment with SK-MEL-2.
On to `COc1ccc(-c2c(-c3ccccc3)c(C)nc3nc(SC)nc(SC)c23)cc1OC`, for which the GI50 is 2.82 µM (inactive) with RPMI-8226; 6.18 µM (inactive) in the experiment on HCT-116; 15.6 µM (inactive) in the experiment on EKVX; 19.9 µM (inactive) in the experiment with ACHN; 28.8 µM (inactive) in the experiment on NCI-H23; 10.1 µM (inactive) with Malme-3M. For the same compound, the GI50 in the experiment with HCT-15 was 8.2 µM; in the experiment with A498, 15.7 µM (inactive); in the experiment on SF-295, 7.55 µM (inactive); in the experiment with SN12C it was 7.4 µM (inactive); with MCF7 it was 10.6 µM (inactive); in the experiment on U-251 it was 9.1 µM (inactive). Moreover, the GI50 is 12.4 µM (inactive) with OVCAR-5; 2.12 µM (inactive) in the experiment with NCI-H460; 11.3 µM (inactive) in the experiment on UACC-62; 5.2 µM (inactive) in the experiment on SF-539; 4.61 µM (inactive) in the experiment on NCI-H522; 14.4 µM (inactive) with OVCAR-3. The results for the GI50 with CAKI-1 and in the experiment with SK-MEL-2 were 0.764 µM (active) and 17.1 µM (inactive), respectively.
As for `C[C@H]1C(=O)O[C@@H]2CCN3CC=C(COC(=O)[C@](C)(O)[C@@]1(C)O)[C@H]23`, the GI50 in the experiment with RPMI-8226 was > 100 µM (inactive); in the experiment on HCT-116, > 100 µM (inactive); in the experiment on EKVX, > 100 µM (inactive); with ACHN, > 100 µM (inactive); in the experiment with NCI-H23, > 100 µM (inactive); with HCT-15, above 100 µM. The GI50 with A498, in the experiment with SF-295, in the experiment with SN12C, in the experiment with MCF7, with U-251 and in the experiment with OVCAR-5 was > 100 µM (inactive) in each case. The GI50 in the experiment on NCI-H460 was > 10 µM (inactive); in the experiment on UACC-62 it was > 100 µM (inactive); in the experiment on SF-539, > 100 µM (inactive); in the experiment on NCI-H522, > 100 µM (inactive); in the experiment on OVCAR-3, > 100 µM (inactive); in the experiment with CAKI-1, > 100 µM (inactive). Further, the GI50 with SK-MEL-2 is > 100 µM (inactive).
With `COc1cc(-c2ccc(/N=N/c3c(S(=O)(=O)O)cc4cc(S(=O)(=O)O)cc(N)c4c3O)c(OC)c2)ccc1/N=N/c1c(S(=O)(=O)O)cc2cc(S(=O)(=O)O)cc(N)c2c1O`, the GI50 in the experiment with RPMI-8226 was > 100 µM (inactive); with HCT-116, > 100 µM (inactive); in the experiment with EKVX it was 88.5 µM (inactive); in the experiment on NCI-H23, > 100 µM (inactive); with Malme-3M, > 100 µM (inactive); in the experiment on HCT-15, 59.6 µM. Also, the GI50 with A498, in the experiment on SF-295, in the experiment on SN12C, in the experiment with MCF7, with U-251 and in the experiment with OVCAR-5 was > 100 µM (inactive) throughout. The GI50 in the experiment on NCI-H460 was > 100 µM (inactive); with SF-539, > 100 µM (inactive); in the experiment with NCI-H522, > 100 µM (inactive); in the experiment with OVCAR-3, > 62.8 µM (inactive); with SK-MEL-2 it was > 100 µM (inactive).
In the case of `COc1ccc(-c2cc(O)c3c(C)cc(C)nc3n2)cc1`, the GI50 with RPMI-8226 is 18 µM (inactive); in the experiment on EKVX it was 45.2 µM (inactive); in the experiment with ACHN, 44.1 µM (inactive); in the experiment on NCI-H23, 28.6 µM (inactive); in the experiment on Malme-3M, 29 µM (inactive); in the experiment with HCT-15, 24.4 µM. Further, the GI50 in the experiment on A498 is 30.5 µM (inactive); in the experiment with SN12C, 44.3 µM (inactive); in the experiment with MCF7 it was 15.3 µM (inactive); in the experiment on OVCAR-5, > 100 µM (inactive); in the experiment with UACC-62 it was 18.4 µM (inactive); with SF-539, > 100 µM (inactive). The GI50 was 38.1 µM (inactive) in the experiment on NCI-H522, 22.9 µM (inactive) in the experiment with CAKI-1 and 43.1 µM (inactive) with SK-MEL-2.
As to `C/C1=C\[C@@H](C)C[C@@H](C)OC(=O)[C@@H](C)NC(=O)[C@H](Cc2ccc(O)c(Br)c2)N(C)C(=O)CNC(=O)[C@H](C)C1`, the GI50 in the experiment on RPMI-8226 was < 0.01 µM (active); in the experiment on HCT-116, < 0.01 µM (active); in the experiment on EKVX, 0.117 µM (active); with ACHN, < 0.01 µM (active); with Malme-3M, 0.0328 µM (active); with HCT-15, below 0.01 µM. Besides, the GI50 was < 0.0106 µM (active) in the experiment on A498; 0.0114 µM (active) in the experiment on SF-295; 0.119 µM (active) in the experiment on SN12C; 0.182 µM (active) in the experiment with MCF7; < 0.01 µM (active) in the experiment on U-251; 13 µM (inactive) in the experiment on OVCAR-5. In addition, the GI50 in the experiment with NCI-H460, with SF-539, with NCI-H522, in the experiment on OVCAR-3 and with CAKI-1 was < 0.01 µM (active) each time.
Consider `CCOP(=O)(OCC)C(Cc1ccc(OC)c(OC)c1)N=C(c1ccccc1)c1ccccc1` (configuration not stated), for which the GI50 is 18.8 µM (inactive) in the experiment with RPMI-8226; 27.1 µM (inactive) in the experiment with HCT-116; 41.6 µM (inactive) with ACHN; 41.6 µM (inactive) in the experiment on NCI-H23; 32.5 µM with HCT-15; 56.8 µM (inactive) with A498. Besides, the GI50 was 26.2 µM (inactive) in the experiment with SF-295; 42 µM (inactive) in the experiment on SN12C; 24.7 µM (inactive) in the experiment with MCF7; 46.1 µM (inactive) with U-251; 70.5 µM (inactive) in the experiment on OVCAR-5; 34 µM (inactive) in the experiment with NCI-H460. For the same compound, the GI50 with UACC-62 was 68.7 µM (inactive); in the experiment with SF-539, 75 µM (inactive); with NCI-H522 it was 22.8 µM (inactive); with OVCAR-3 it was 34.4 µM (inactive); in the experiment with CAKI-1, 67 µM (inactive).
Regarding `COc1ccc(OC)c2c1C(=O)C(Cl)=C(N1CCN(CCOCCO)CC1)C2=O`, the GI50 is 2.94 µM (inactive) in the experiment with RPMI-8226; 4.66 µM (inactive) in the experiment on HCT-116; 18.9 µM (inactive) with EKVX; 16.6 µM (inactive) in the experiment on ACHN; 7.6 µM (inactive) in the experiment with NCI-H23; 19.8 µM (inactive) in the experiment with Malme-3M. Also, the GI50 in the experiment with HCT-15 was 7.38 µM; with A498, 16.9 µM (inactive); in the experiment with SF-295, 18.7 µM (inactive); with SN12C, 12.4 µM (inactive); in the experiment on MCF7, 6.12 µM (inactive); in the experiment on U-251, 21.4 µM (inactive). Also, the GI50 is 21 µM (inactive) with OVCAR-5; 18.8 µM (inactive) with NCI-H460; 10.5 µM (inactive) in the experiment with UACC-62; 17.8 µM (inactive) in the experiment with SF-539; 4.3 µM (inactive) in the experiment on NCI-H522; 17.3 µM (inactive) in the experiment on OVCAR-3.
